According to patent US20110082130A1 (LIGAND PHARMACEUTICALS, INC., priority 2006, published 2011):

target: T1, chimeric human H3 receptor (Homo sapiens, UniProt Q9Y5N1); experiment: Chimeric human H3 receptor GTP binding assay (agonist-stimulated GTP-gamma35S binding, Example 7); format: biochemical; conditions: Table I; P2 membranes of Sf9 cells, 1 μM histamine as agonist, Ki from IC50 by Cheng-Prusoff
T1 construct: made in house; host or cells: Sf9 insect cells (baculovirus); P2 membrane preparation
T1 sequence (Q9Y5N1 with tags, fused parts or gaps): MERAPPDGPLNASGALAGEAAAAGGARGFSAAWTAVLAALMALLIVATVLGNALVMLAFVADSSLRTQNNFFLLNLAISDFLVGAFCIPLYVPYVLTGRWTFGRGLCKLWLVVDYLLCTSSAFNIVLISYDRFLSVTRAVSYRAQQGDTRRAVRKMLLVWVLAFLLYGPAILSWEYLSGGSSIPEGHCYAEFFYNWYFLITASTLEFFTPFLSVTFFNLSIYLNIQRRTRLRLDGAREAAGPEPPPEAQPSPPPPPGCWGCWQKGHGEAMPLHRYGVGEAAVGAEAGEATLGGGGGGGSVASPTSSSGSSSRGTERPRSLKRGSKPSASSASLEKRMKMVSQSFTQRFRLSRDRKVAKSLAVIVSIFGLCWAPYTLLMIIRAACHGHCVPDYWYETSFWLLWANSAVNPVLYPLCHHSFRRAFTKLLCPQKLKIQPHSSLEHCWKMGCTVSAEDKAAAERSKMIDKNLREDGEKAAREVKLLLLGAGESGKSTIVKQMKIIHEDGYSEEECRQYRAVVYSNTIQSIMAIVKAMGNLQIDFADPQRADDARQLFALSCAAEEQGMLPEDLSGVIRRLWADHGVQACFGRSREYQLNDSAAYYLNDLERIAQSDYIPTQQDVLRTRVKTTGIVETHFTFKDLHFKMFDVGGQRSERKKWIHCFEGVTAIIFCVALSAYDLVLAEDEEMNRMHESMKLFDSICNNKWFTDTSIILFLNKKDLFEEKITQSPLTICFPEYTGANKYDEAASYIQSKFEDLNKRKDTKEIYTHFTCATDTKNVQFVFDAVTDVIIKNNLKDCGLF
Procedure, shortened: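 Sf9 membranes co-expressing chimeric human H3 receptor and heterotrimeric G-protein, 35 μg/tube, in pH 7.4 Tris buffer with 10 μM GDP. Test compounds (10^−10–10^−6 M) competed against 1 μM histamine, […] GTP-gamma35S, 60 min at room temperature. Filter-bound radioactivity counted; IC50 converted to Ki by Cheng-Prusoff. Agonism/inverse agonism tested without histamine (EC50).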

Ki, < 1000 nM:
COc1cc2c(cc1OC)CN(CC(=O)N1CCN(C(C)C)CC1)CC2 [Compound 49, 2-[2-(4-isopropylpiperazin-1-yl)-2-oxoethyl]-6,7-dimethoxy-1,2,3,4-tetrahydroisoquinoline]
CC(=O)c1ccc(-c2cnc3n2CCN(CC(=O)N2CCN(C4CCC4)CC2)C3)cc1 [Compound 82, 1-(4-{7-[2-(4-cyclobutylpiperazin-1-yl)-2-oxoethyl]-5,6,7,8-tetrahydroimidazo[1,2-a]pyrazin-3-yl}phenyl)ethanone]

same assay, conditions: Table II "Ki", symbol *; assay of Example 7

Ki, < 1000 nM:
CN(C)c1ccc(-c2ccc3c(c2)CCN(CC(=O)N2CCN(C4CCC4)CC2)C3)cc1 [Compound 532, 4-{2-[2-(4-cyclobutylpiperazin-1-yl)-2-oxoethyl]-1,2,3,4-tetrahydroisoquinolin-6-yl}-N,N-dimethylaniline]
CCCOc1ccc(-c2ccc3c(c2)CCN(CC(=O)N2CCN(C4CCC4)CC2)C3)cc1 [Compound 544, 2-[2-(4-cyclobutylpiperazin-1-yl)-2-oxoethyl]-6-(4-propoxyphenyl)-1,2,3,4-tetrahydroisoquinoline]
COc1ccc2cc(-c3ccc4c(c3)CCN(CC(=O)N3CCN(C5CCC5)CC3)C4)ccc2c1 [Compound 509, 2-[2-(4-cyclobutylpiperazin-1-yl)-2-oxoethyl]-6-(6-methoxy-2-naphthyl)-1,2,3,4-tetrahydroisoquinoline]
COC[C@H]1CCCN1c1ccc2c(n1)CCN(CC(=O)N1CCN(C3CCC3)CC1)C2 [Compound 679, 6-[2-(4-cyclobutylpiperazin-1-yl)-2-oxoethyl]-2-[(2R)-2-(methoxymethyl)pyrrolidin-1-yl]-5,6,7,8-tetrahydro-1,6-naphthyridine]
C[C@H]1CN(C(=O)CN2CCc3cc(-c4cncnc4)ccc3C2)CCN1C1CCCCC1 [Compound 616, 2-{2-[(3S)-4-cyclohexyl-3-methylpiperazin-1-yl]-2-oxoethyl}-6-pyrimidin-5-yl-1,2,3,4-tetrahydroisoquinoline]
CN(C)c1cccc(-c2ccc3c(c2)CCN(CC(=O)N2CCN(C4CCC4)CC2)C3)c1 [Compound 536, 3-{2-[2-(4-cyclobutylpiperazin-1-yl)-2-oxoethyl]-1,2,3,4-tetrahydroisoquinolin-6-yl}-N,N-dimethylaniline]
O=C(CN1CCc2cc(-c3ccc(C(F)(F)F)nc3)ccc2C1)N1CCN(C2CCC2)CC1 [Compound 648, 2-[2-(4-cyclobutylpiperazin-1-yl)-2-oxoethyl]-6-[6-(trifluoromethyl)pyridin-3-yl]-1,2,3,4-tetrahydroisoquinoline]
CC1CCCC1N1CCN(C(=O)CN2CCc3cc(-c4cncnc4)ccc3C2)C[C@@H]1C (stereo partly drawn) [Compound 614, 2-{2-[(3S)-3-methyl-4-(2-methylcyclopentyl)piperazin-1-yl]-2-oxoethyl}-6-pyrimidin-5-yl-1,2,3,4-tetrahydroisoquinoline]
COc1ccc(-c2ccc3c(c2)CCN(CC(=O)N2CCN(C4CCC4)CC2)C3)cc1F [Compound 502, 2-[2-(4-cyclobutylpiperazin-1-yl)-2-oxoethyl]-6-(3-fluoro-4-methoxyphenyl)-1,2,3,4-tetrahydroisoquinoline]

same assay, conditions: Table II; "*" = Ki in assay of Example 7 less than 1 micromolar

Ki, < 1000 nM:
CC(=O)c1ccc2c(c1)CCN(CC(=O)N1CCN3CCCCC3C1)C2 (stereo not drawn) [Compound 154, 1-{2-[2-(octahydro-2H-pyrido[1,2-a]pyrazin-2-yl)-2-oxoethyl]-1,2,3,4-tetrahydroisoquinolin-6-yl}ethanone]
CC(C)Oc1ccc2c(c1)CCN(CC(=O)N1CCN(C3CCC3)CC1)C2 [Compound 197, 2-[2-(4-cyclobutylpiperazin-1-yl)-2-oxoethyl]-6-isopropoxy-1,2,3,4-tetrahydroisoquinoline]
CCOC(=O)c1cnc2c(c1)CCN(CC(=O)N1CCN(C3CCC3)CC1)C2 [Compound 116, ethyl 7-[2-(4-cyclobutylpiperazin-1-yl)-2-oxoethyl]-5,6,7,8-tetrahydro-1,7-naphthyridine-3-carboxylate]
CC(=O)c1ccc(-n2cc3c(n2)CCN(CC(=O)N2CCN(C4CCC4)CC2)C3)cc1 [Compound 94, 1-(4-{5-[2-(4-cyclobutylpiperazin-1-yl)-2-oxoethyl]-4,5,6,7-tetrahydro-2H-pyrazolo[4,3-c]pyridin-2-yl}phenyl)ethanone]
CC1CCC[C@H]2CN(C(=O)CN3CCc4nc(Cl)sc4C3)CCN12 (stereo in doubt) [Compound 147, 2-[(2-chloro-6,7-dihydro[1,3]thiazolo [5,4-c]pyridin-5(4H)-yl)acetyl]-6-methyloctahydro-2H-pyrido[1,2-a]pyrazine]
CS(=O)(=O)c1cccc(-c2nc3c(s2)CN(CC(=O)N2CCN(C4CCC4)CC2)CC3)c1 [Compound 99, 5-[2-(4-cyclobutylpiperazin-1-yl)-2-oxoethyl]-2-[3-(methylsulfonyl)phenyl]-4,5,6,7-tetrahydro[1,3]thiazolo [5,4-c]pyridine]
O=C(CN1CCc2cc(-n3cncn3)ccc2C1)N1CCN(C2CCC2)CC1 [Compound 207, 2-[2-(4-cyclobutylpiperazin-1-yl)-2-oxoethyl]-6-(1H-1,2,4-triazol-1-yl)-1,2,3,4-tetrahydroisoquinoline]
CC1CCC[C@H]2CN(C(=O)CN3CCc4nc(N5CCOCC5)ncc4C3)CCN12 (stereo partly drawn) [Compound 186, 6-[2-(6-methyloctahydro-2H-pyrido[1,2-a]pyrazin-2-yl)-2-oxoethyl]-2-morpholin-4-yl-5,6,7,8-tetrahydropyrido[4,3-d]pyrimidine]
O=C(CN1CCc2cc(Br)ccc2C1)N1CCN2CCCCC2C1 (stereo not drawn) [Compound 148, 2-[(6-bromo-3,4-dihydroisoquinolin-2(1H)-yl)acetyl]octahydro-2H-pyrido[1,2-a]pyrazine]
COC(=O)c1ccc(-c2nc3c(s2)CN(CC(=O)N2CCN(C4CCC4)CC2)CC3)cc1 [Compound 100, methyl 4-{5-[2-(4-cyclobutylpiperazin-1-yl)-2-oxoethyl]-4,5,6,7-tetrahydro[1,3]thiazolo [5,4-c]pyridin-2-yl}benzoate]
C[C@@H](O)c1ccc2c(c1)CCN(CC(=O)N1CCN(C3CCC3)CC1)C2 (stereo in doubt) [Compound 253, 1-{2-[2-(4-cyclobutylpiperazin-1-yl)-2-oxoethyl]-1,2,3,4-tetrahydroisoquinolin-6-yl}ethanol]
O=C(CN1CCc2nc(-c3ccccn3)ncc2C1)N1CCN(C2CCC2)CC1 [Compound 144, 6-[2-(4-cyclobutylpiperazin-1-yl)-2-oxoethyl]-2-pyridin-2-yl-5,6,7,8-tetrahydropyrido[4,3-d]pyrimidine]
CCn1cc(-c2ccc3c(c2)CCN(CC(=O)N2CCN(C4CCC4)CC2)C3)ccc1=O [Compound 280, 5-{2-[2-(4-cyclobutylpiperazin-1-yl)-2-oxoethyl]-1,2,3,4-tetrahydroisoquinolin-6-yl}-1-ethylpyridin-2(1H)-one]

same assay, conditions: Table II; assay of Example 7

Ki, < 1000 nM:
O=C(CN1CCc2nn(C3CCCC3)cc2C1)N1CCN(C2CCC2)CC1 [Compound 684, 5-[2-(4-cyclobutylpiperazin-1-yl)-2-oxoethyl]-2-cyclopentyl-4,5,6,7-tetrahydro-2H-pyrazolo[4,3-c] pyridine]

same assay, conditions: assay of Example 7; "*" in Ki of Table II

Ki, < 1000 nM:
CC(C)(C)c1ccc(-c2nc3c(s2)CN(CC(=O)N2CCN(C4CCC4)CC2)CC3)cc1 [Compound 314, 2-(4-tert-butylphenyl)-5-[2-(4-cyclobutylpiperazin-1-yl)-2-oxoethyl]-4,5,6,7-tetrahydro[1,3]thiazolo [5,4-c]pyridine]
O=C(CN1CCc2nc(-c3cc(C(F)(F)F)cc(C(F)(F)F)c3)sc2C1)N1CCN(C2CCC2)CC1 [Compound 371, 2-[3,5-bis(trifluoromethyl)phenyl]-5-[2-(4-cyclobutylpiperazin-1-yl)-2-oxoethyl]-4,5,6,7-tetrahydro[1,3]thiazolo [5,4-c]pyridine]
Cn1cc2c(n1)CCN(CC(=O)N1CCN(C3CCC3)CC1)C2 [Compound 293, 5-[2-(4-cyclobutylpiperazin-1-yl)-2-oxoethyl]-2-methyl-4,5,6,7-tetrahydro-2H-pyrazolo[4,3-c]pyridine]
CC(C)c1ccccc1-c1nc2c(s1)CN(CC(=O)N1CCN(C3CCC3)CC1)CC2 [Compound 362, 5-[2-(4-cyclobutylpiperazin-1-yl)-2-oxoethyl]-2-(2-isopropylphenyl)-4,5,6,7-tetrahydro[1,3]thiazolo [5,4-c]pyridine]
CC(C)n1cc(-c2ccc3c(c2)CCN(CC(=O)N2CCN(C4CCC4)CC2)C3)ccc1=O [Compound 282, 5-{2-[2-(4-cyclobutylpiperazin-1-yl)-2-oxoethyl]-1,2,3,4-tetrahydroisoquinolin-6-yl}-1-isopropylpyridin-2(1H)-one]
O=C(CN1CCc2nc(-c3ccc(Cl)cc3F)sc2C1)N1CCN(C2CCC2)CC1 [Compound 351, 2-(4-chloro-2-fluorophenyl)-5-[2-(4-cyclobutylpiperazin-1-yl)-2-oxoethyl]-4,5,6,7-tetrahydro[1,3]thiazolo [5,4-c]pyridine]
COc1cc(F)c(-c2nc3c(s2)CN(CC(=O)N2CCN(C4CCC4)CC2)CC3)cc1F [Compound 323, 5-[2-(4-cyclobutylpiperazin-1-yl)-2-oxoethyl]-2-(2,5-difluoro-4-methoxyphenyl)-4,5,6,7-tetrahydro[1,3]thiazolo [5,4-c]pyridine]
COc1ccc(-c2nc3c(s2)CN(CC(=O)N2CCN(C4CCC4)CC2)CC3)c(OC)c1 [Compound 340, 5-[2-(4-cyclobutylpiperazin-1-yl)-2-oxoethyl]-2-(2,4-dimethoxyphenyl)-4,5,6,7-tetrahydro[1,3]thiazolo [5,4-c]pyridine]
